Consider two sequences from US20030170229A1, “Vaccine” (SmithKline Beecham Biologicals s.a., priority 1999, published 2003).

In one experiment the test system is Peptide P11. The experiment is described as follows: Anti-P11 ELISA on sera of mice immunised with P11-BSA. The following applies: P11 coupled to BSA, 25 μg in SBAS2 IM, 8 female BALB/c mice, days 0, 14, 28. It is filed as in vivo. As for the experimental part:
FIG. 5, Antibody response anti-P11. Peptide P11 is coated at 1 μg/ml in carbonate buffer at +4° C. overnight. After saturation of plates, two-fold serial dilution of sera are added and incubated for 1 h at 37° C. Bound IgG is detected with a biotinylated anti-mouse Ab followed by streptavidin-POD and TMB substrate. Time points measured A. days 14 post vaccination 1, and day 14 post v2; B, Day 14 post v3.
(§1) The anti-peptide and anti-carrier immune responses were investigated using an ELISA technique outlined below. Microtiterplates (Nunc) are coated with the specific antigen in PBS (4° overnight) with either: Streptavidin at 2 μg/ml (followed by incubation with biotinylated peptide (1 μM) for 1 hour at 37° C.), Wash 3× PBS-Tween 20 0.1%. Saturate plates with PBS-BSA 1%-Tween 20 0.1% (Sat buffer) for 1 hr at 37°. Add 1° antibody=sera in two-step dilution (in Sat buffer), incubate 1 hr 30 minutes at 37°. Wash 3×. Add 2° anti-mouse Ig (or anti-mouse isotype specific monoclonal antibody) coupled to HRP. Incubate 1 hr at 37°. Wash 5×. Reveal with TMB (BioRad) for 10 minutes at room temperature in the dark. Block reaction with 0.4N H2SO4.
25 μg of conjugate formulated in SBAS2 was injected IM into 8 female BALB/c mice at days 0, 14 and 28. […] Anti-peptide and anti-IgE antibodies raised by vaccination were measured by ELISA, as described in Example 1.

The next experiment deals with human IgE. The experiment is described as follows: IgE plate bound ELISA: anti-human IgE reactivity in serum of immunised mice. Type of experiment: in vivo, mouse. For orientation: In an ELISA, binding on a coated surface is turned into a signal by an enzyme label.
A further experiment has as its system P14 peptide. The experiment is described as follows: Anti-peptide ELISA on sera of mice immunised with P14 conjugates. It is filed as in vivo, BalbC mice. The following applies: mice vaccinated with P14 conjugate. As for the experimental part:
as §1
The conjugates comprising the mimotope P14 (25 μg protein/dose), described in example 1, were administered into groups of 10 BalbC mice, adjuvanted with and oil in water emulsion containing QS21 and 3D-MPL described in WO 95/17210. Boosting was be performed on days 14, 24 and 72, sera was harvested 14 days after each immunisation. The immune responses anti-peptide and anti-plate bound IgE was followed using ELISA methods described in Example 1. The antiserum was then tested for anaphylactogenicity and functional activity in the inhibition of histamine release from human allergic basophils (methods as described in example 1).

The subject of another experiment is allergic human basophils. The experiment is described as follows: Human basophil assay, blocking assay (inhibition of allergen-triggered histamine release). The following applies: mouse antiserum; allergic human basophils triggered with allergen. Type of experiment: cell-based. An excerpt:
Samples of cells were lysed by 2× freeze/thawing to assay total histamine contained in the cells.
The degree of inhibition of histamine release can be calculated using the formula: […]
(histamine release from antigen stimulated cells*)
Values corrected for spontaneous release.

“Also recorded” adds a separate entry of the source.

As to “CRASGKPVNHSTRKEEKQRNGLL (Human peptide sequence) [Peptide P11]”, in the experiment with Peptide P11, the “IgG anti-P11 response” value is “detected already after one injection, but increased further after the second and third injection”. The anti-IgE response in the experiment with human IgE (as expressed in mAb005 equivalents, all mice, after a third injection of P11 coupled to BSA) lay in the range of 28 to 244 µg/mL.

For the sequence “APEWPGSRDKRTC (Human peptide sequence) [Peptide P14]”, the “induction of anti-P14 immune response” value in the experiment with P14 peptide was “capable of raising high titres”. Also, the “induction of anti-IgE immune response” value in the experiment on human IgE (mice vaccinated with P14 conjugate) is reported as “capable of raising high titres”. In addition, the “inhibition of histamine release by antiserum/antibodies raised by vaccination” value in the experiment on allergic human basophils is recorded as “potent in the inhibition of histamine release; also recorded: inhibited histamine release”.
